According to PubChem BioAssay (NCI):
“And” between values parts separate entries of the source, which are not always exact repeats. Equal entries are not always repeated.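 Values below derive from 48-hour exposures of cells grown in 96-well plates, with endpoints linearly interpolated between the two concentrations bracketing the appropriate inhibition level. Here, GI50 denotes the concentration required for 50% inhibition of growth. At the TGI there is no net growth.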

Key:
Test in all cases: growth of human tumour cells (NCI), 48 h
[1] = test system: PC-3 prostate
[2] = test system: CCRF-CEM leukemia
[3] = test system: UACC-257 melanoma
[4] = test system: MCF7 breast
[5] = test system: RPMI-8226 leukemia
[6] = test system: A549 NSCLC
[7] = test system: HT29 colon
[8] = test system: HCC-2998 colon
[9] = test system: MDA-MB-231 breast
[10] = test system: M14 melanoma

| SMILES | GI50 [1] [µM] | TGI [1] [µM] | GI50 [2] [µM] | TGI [2] [µM] | GI50 [3] [µM] | TGI [3] [µM] | GI50 [4] [µM] | TGI [4] [µM] | GI50 [5] [µM] | TGI [5] [µM] | GI50 [6] | TGI [6] | GI50 [7] [µM] | TGI [7] [µM] | GI50 [8] | TGI [8] | GI50 [9] [µM] | TGI [9] [µM] | GI50 [10] [µM] | TGI [10] [µM] |
| --- | --- | --- | --- | --- | --- | --- | --- | --- | --- | --- | --- | --- | --- | --- | --- | --- | --- | --- | --- | --- |
| Cc1[nH]c2ccccc2c1CO | 17 | 43.7 | 32.8 | > 100 | 24.1 | 60.2 | 21.3 | 51.5 | 26.9 | > 100 | 38.3 µM | > 100 µM | 15.9 | 34.7 | 21.2 µM | 47.2 µM | 18.1 | 54.7 | 16.4 | 34.9 |
| CCOc1ccc(-c2nc3ccc(-c4nc5ccc(N6CCN(C)CC6)cc5[nH]4)cc3[nH]2)cc1 | 0.352 | 6.19 | 0.316 | 1.87 |  |  | 0.0328 | 0.38 | 0.0484 | 0.71 | 1.24 µM and 1.04 µM | 3.13 µM and 3.35 µM |  |  | 0.267 µM and 0.196 µM | 0.543 µM and 0.415 µM | 1.25 | 2.6 | 0.264 | 2.08 |
| CCOC(=O)Cc1csc(NC(=O)C(OC(=O)c2ccc(Cl)cc2)c2ccccc2)n1 (configuration not stated) | 35.1 | > 100 |  |  | 41.3 | > 100 | 34 | > 100 | 17.1 | 46.6 | 47.1 µM | > 100 µM | 27 | 88 | 50.9 µM | > 100 µM | 31.7 | > 100 | 22.1 | 52 |
| Cc1ccc(-c2cc(C(=O)Nc3ccc(S(=O)(=O)N4CCCCC4)cc3)[nH]n2)c(O)c1 | > 100 | > 100 | 59.6 | > 100 | > 100 | > 100 | > 100 | > 100 | > 100 | > 100 | > 100 µM | > 100 µM | > 100 | > 100 | > 100 µM | > 100 µM | 16.8 | > 100 |  |  |
| Cn1cnc([N+](=O)[O-])c1S(=O)(=O)Oc1ccc(Cl)cc1 | 17.2 | 49.2 | 2.33 | 7.05 | 3.59 | 16.6 | 22.9 | 96.1 | 3.58 | 17.7 | 58.2 µM | > 100 µM | 2.33 | 5.36 | 15.9 µM | 30.2 µM | 2.8 | 5.99 | 2.36 | 5.21 |
| Oc1nc(N2CCOCC2)sc1/C=C1\C=Nc2ccccc21 | > 100 | > 100 | > 100 | > 100 | > 100 | > 100 | > 100 | > 100 | > 100 | > 100 | > 100 µM | > 100 µM | 65.2 | > 100 | > 100 µM | > 100 µM | > 100 | > 100 | > 100 | > 100 |
| COc1cc(CSc2nc3ccc(Cl)cc3c(=O)n2Cc2ccccc2)cc(OC)c1OC | 3.48 | > 100 | 3.6 | > 100 | 8.47 | > 100 | 1.34 | 45.5 | 4.27 | > 100 | 4.03 µM | > 100 µM | 3.32 | > 100 | 6.18 µM | > 100 µM | 5.34 | > 100 | 4.26 | > 100 |
| N#Cc1c(N)nc2c(c1-c1ccc(Cl)cc1)COc1ccc(F)cc1-2 | 29.7 | 65.7 | 44.2 | > 100 | 29.4 | 90.8 | 17.9 | > 100 | 18.7 | 41.2 | 43.5 µM | > 100 µM | 39.4 | > 100 | 23.3 µM | 68.8 µM | 11.9 | 51.8 | 29.8 | 96.1 |
| OCc1ccc(-c2nc(-c3ccc4c(c3)OCO4)c(-c3ccccn3)[nH]2)cc1 | > 25 | > 25 | > 25 | > 25 | > 25 | > 25 | > 25 | > 25 | 15.9 | > 25 | > 25 µM | > 25 µM | > 25 | > 25 | > 25 µM | > 25 µM | 10.2 | > 25 | > 25 | > 25 |
| Clc1ccc(-c2cnc3c(-c4ccnc(N5CCNCC5)c4)cnn3c2)cc1 | 1.85 | 5.72 | 2.07 | 5.13 | 2.08 | 3.82 | 1.85 | 3.66 | 1.86 | 4.05 | 1.96 µM | 3.69 µM | 1.24 | 2.53 | 2.02 µM | 3.51 µM | 1.74 | 3.7 | 2 | 3.46 |
| Oc1ccc(N=Nc2ccc(Br)cc2)c(O)c1 | 3.08 | 21.7 | 1.91 | 4.82 | 7.52 | 30.7 | 2.2 | 54.3 | 1.76 | 5.35 | 3.19 µM | 17.9 µM | 15.5 | 77.9 | 3.55 µM | 12 µM | 3.47 | 16.6 | 2.2 | 5.62 |
| CCOC(=O)c1c(NN2CCN(CC(F)(F)F)CC2)oc(/C=C2\C=Nc3ncccc32)c1O | 4.04 | 21.4 | 6.81 | > 100 | 6.45 | 25.1 | 6.37 | 30.5 | 4.25 | 20.7 | 5.2 µM | 49.1 µM | 2.47 | 17.1 | 2.7 µM | 12.6 µM | 6.72 | 32.4 | 4.77 | 24.4 |
| Nc1nc(-c2cccnc2)cc(-c2cc(-c3cccnc3)nc(N)n2)n1 |  | > 100 |  | > 100 |  | > 100 |  | > 100 |  | > 100 |  | > 100 µM |  | > 100 |  | > 100 µM |  | > 100 |  | > 100 |
